Laboratory results published in patent publication US20240245633A1, “ROR Gamma Agonists as Enhancers of Protective Immunity” (University of Florida Research Foundation, Incorporated, priority 2015, published 2024).
Marks after values point to notes of the source that are not given here.

How the values were obtained:
RORγt = molecular target: T1, RORγt (Homo sapiens, UniProt P51449); conditions: Circular Dichroism; cited from earlier work
T1 sequence (P51449 1-497 isoform P51449-2): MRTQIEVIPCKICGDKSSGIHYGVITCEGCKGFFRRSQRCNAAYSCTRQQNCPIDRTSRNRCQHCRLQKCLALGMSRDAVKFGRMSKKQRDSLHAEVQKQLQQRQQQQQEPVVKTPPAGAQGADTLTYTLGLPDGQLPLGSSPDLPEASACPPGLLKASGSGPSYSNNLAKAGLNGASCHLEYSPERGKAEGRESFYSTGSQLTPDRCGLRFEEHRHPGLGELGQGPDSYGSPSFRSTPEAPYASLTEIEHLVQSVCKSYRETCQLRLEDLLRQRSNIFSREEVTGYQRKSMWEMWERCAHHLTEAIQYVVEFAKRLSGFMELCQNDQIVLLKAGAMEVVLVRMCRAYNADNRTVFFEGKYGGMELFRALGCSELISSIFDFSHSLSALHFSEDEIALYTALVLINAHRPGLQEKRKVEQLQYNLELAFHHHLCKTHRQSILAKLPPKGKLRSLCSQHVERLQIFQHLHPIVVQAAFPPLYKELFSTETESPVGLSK

[1] = molecular target: ligand binding domain (LBD) of RORγt (Homo sapiens, UniProt P51449); conditions: read-out: IC50, competitive radioligand binding; cited from earlier work
[2] = molecular target: T2, RORγ LBD / SRC1-3 NR box peptide (Homo sapiens, UniProt P51449); test: NR box peptide interaction assay (TR-FRET); type: biochemical; conditions: concentration response
T2 sequence (P51449 269-508 limits assumed): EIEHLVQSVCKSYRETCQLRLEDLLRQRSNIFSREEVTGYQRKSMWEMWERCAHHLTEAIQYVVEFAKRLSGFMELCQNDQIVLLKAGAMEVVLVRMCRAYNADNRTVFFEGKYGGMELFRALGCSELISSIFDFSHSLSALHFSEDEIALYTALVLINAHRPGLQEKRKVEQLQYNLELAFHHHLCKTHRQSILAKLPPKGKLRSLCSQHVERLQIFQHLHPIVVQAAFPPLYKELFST
Description: NR box peptide interaction assay. A TR-FRET-based interaction assay was used. […] The mixtures were incubated for 2 hr at R.T., and fluorescence intensity was measured on an Envision pate reader with excitation at 340 nm and emission at 490 nm and 520 nm. The ratio of intensity at 520 nm/490 nm was used to calculate cofactor recruitment activity.

Gal4-RORγ = molecular target: T3, Gal4-RORγ (Homo sapiens, UniProt P51449); test: cell-based; conditions: HEK-293T, read-out: fold induction of reporter gene expression
T3 sequence (P51449 269-508 limits assumed): T2 sequence (P51449 269-508 limits assumed)

[3] = tested on: ROR target genes FGF21 and G6Pase; conditions: in cells and in vivo; cited from earlier work
[4] = molecular target: T4, RORγt LBD pretreated with ursolic acid (Homo sapiens, UniProt P51449); test: Differential HDX-MS of RORγt pretreated with ursolic acid ± compound; type: binding
T4 construct: 5 μL of a 10 μM RORγt LBD solution (Apo or in complex with 10-excess compound)
T4 sequence (P51449 269-508 limits assumed): T2 sequence (P51449 269-508 limits assumed)
Source text: While the mechanism of action of RORγt agonists on regulation of the immune checkpoint receptor PD-1 is unclear, a correlation between RORγt and PD-1 expression has been observed in PD-1 knockout mice Z Regardless, to gain insights into the structural mechanism for agonist activity we examined the impact of putative agonist ligands on the conformational dynamics of RORγt. To achieve this, we utilized differential hydrogen/deuterium exchange (HDX) mass spectrometry.
HDX-MS. Solution-phase amide HDX was performed with a fully automated system as described previously with minor modifications^30,31. For differential HDX experiments, 5 μL of a 10 μM RORγt LBD solution (Apo or in complex with 10-excess compound) was diluted to 25 μL with D20-containing HDX buffer, and incubated at 4° C. for; 10 s, 30s, 60s, 900s, and 3,600s, Following on-exchange, unwanted forward or back exchange is minimized and the protein is denatured by dilution to 50 μL with 0.1% TFA in 3M urea (held at 4° C., pH 2.5). Samples are then passed across an immobilized pepsin column (prepared in house) at 50 μL min−1 (0.1% TFA, 15° C.) and the resulting peptides are trapped onto a Ce trap cartridge (Thermo Fisher, Hypersil Gold). Peptides were then gradient eluted (4% CH3CN to 40% CH3CN, 0,3% formic acid over 5 minutes, 4° C.) across a 1 mm×50 mm Cia HPLC column (Hypersil Gold, Thermo Fisher) and electrosprayed directly into a high resolution orbitrap mass spectrometer (Exactive, Thermo Fisher). Percent deuterium exchange values for peptide isotopic envelopes at each time point were calculated and processed using HDX Workbench^32 and overlaid onto RORγt crystal structures using pyMOL (DeLano Scientific). HDX data is presented as an average of three individual replicates across […] time points (10s, 60s, 300s, 900s, and 3600s).

EL4 T lymphocytes = test: qPCR gene expression in PMA/ionomycin stimulated EL4 cells; type: cell-based, murine; conditions: PMA/ionomycin 5 hr
Description: Here we used murine EL4 T lymphocytes or human Jurkat T cells as model systems to analyze gene expression upon T cell activation. Following treatment of cells with Phorbol 12-myristate 13-acetate (PMA) and ionomycin, the expression of granzyme B (cytotoxicity marker), PD-1 (immune checkpoint) and the RORγt target gene IL17 were analyzed by qPCR.
(§1) Gene expression and Cell sorting. Jurkat T cells were pre-incubated with compounds for 48 hr and activated with phorbol 12-myristate 13-acetate (PMA, 50 ng/mL; Sigma) and ionomycin (1 μg/mL; Sigma) for 5 hr. For qPCR, mRNA was isolated with an RNeasy midi kit using DNase I (Qiagen), and cDNA was synthesized with high capacity cDNA Reverse Transcription kit (Applied Biosystems). IL17A, PD-1, and granzyme B gene expression were normalized to the expression of GAPDH. The sequence of primers used in this study are found in Table 2. For cell sorting, activated Jurkat T cells were stained with APC conjugated anti-human PD-1 antibody (eBioscience). Cell sorting was performed using LSRII (BD Bioscience).

[5] = tested on: differentiated TH17 cells; test: TH17 cell differentiation, flow cytometry; type: cell-based, murine
Description: (§2) Using flow cytometery surface PD-1 expression was analyzed to determine if the decrease in gene expression of PD-1 correlates to a decrease of the protein on the cell surface, Cell: surface PD-1 expression was measured in murine and human T cell lines as well as in ex vivo differentiated murine TH17 cells. […] Next we examined the impact of compound treatment on differentiated murine TH17 cells. […] To determine if there was an increase in the active T cell population during TH17 cell differentiation, the population of CD62L^−PD1^− double negative cells was measured using flow cytometry. […] To determine if the effects of SR0987 on PD-1 expression would be observed in a human cell line, Jurkat T cells were treated with the compound.
TH17 cell differentiation. For naïve T cell differentiation, CD4^+T cells were enriched by negative selection using a magnetic-activated cell sorter kit (Millipore). Enriched CD4+ T cells activated with 5 μg/mL of plate-abound anti CD3 antibody and 1 μg/mL of anti-CD28 antibody in the presence of 20 μg/mL of anti-IFNγ, 20 μg/mL of anti-IL-4, 1 ng/mL of TGFβ, AND 10 ng/mL of IL-6. Four-five days post differentiation, all cells were stimulated for 5 hr with 5 ng/mL of phorbol-12-myristate-13-acetate (Sigma) and 500 ng/mL of ionomycin (Sigma) contained with brefeldin A solution (eBioscience).

EL4 cells = test: PD-1 surface expression in EL4 cells by flow cytometry; type: cell-based, murine; conditions: compound 48 hr
Description: as §2
as §1, with “Cell sorting was performed using LSRII (BD Bioscience).” left out

Jurkat T cells = test: PD-1 surface expression in Jurkat T cells; type: cell-based, human
Description: as §2
as §1, with “Cell sorting was performed using LSRII (BD Bioscience).” left out

O=C(Nc1ccc(C(O)(C(F)(F)F)C(F)(F)F)cc1)c1ccc(C(F)(F)F)cc1 [SR1078]
interaction with RORγt via thermal shift assay (RORγt): direct interaction
IC50 [1]: ~15 µM
interaction of RORγt with SRC1-3 NR box peptide [2]: concentration dependent increase in interaction
fold induction at 30 µM (Gal4-RORγ): ≥ 2
expression of ROR target genes FGF21 and G6Pase [3]: induced the expression of the ROR target genes FGF21 and G6Pase
protection to solvent exchange in H12 ([4]; RORγt exposed to ursolic acid, then compound): induced protection to solvent exchange in H12
Differential HDX kinetics, peptide TEIEHLVQ ([4]; UA pretreated, 268-275, charge 2, H1): −2(3)*
Differential HDX kinetics, peptide TEIEHLVQSVC ([4]; UA pretreated, 268-278, charge 2, H1): 0(3)*
Differential HDX kinetics, peptide TEIEHLVQSVCKS ([4]; UA pretreated, 268-280, charge 3, H1): 1(4)*
Differential HDX kinetics, peptide TEIEHLVQSVCKSYRETCQ ([4]; UA pretreated, 268-286, charge 3, H1): 0(3)*
Differential HDX kinetics, peptide TEIEHLVQSVCKSYRETCQ ([4]; UA pretreated, 268-286, charge 4, H1): 1(3)*
Differential HDX kinetics, peptide RLEDL ([4]; UA pretreated, 288-292, charge 1, H2): −2(4)*
Differential HDX kinetics, peptide RLEDLL ([4]; UA pretreated, 288-293, charge 1, H2): −3(5)*
Differential HDX kinetics, peptide EVTGYQRKSMWEM ([4]; UA pretreated, 304-316, charge 2, H3/H4): 1(4)*
Differential HDX kinetics, peptide WERCAHHLTEAIQ ([4]; UA pretreated, 317-329, charge 3, H4): 0(1)*
Differential HDX kinetics, peptide WERCAHHTEAIQY ([4]; UA pretreated, 317-330, charge 3, H4): 1(1)*
Differential HDX kinetics, peptide WEGAKRLSGF ([4]; UA pretreated, 331-341, charge 2, H4/H5): 0(2)*
Differential HDX kinetics, peptide FAKRLSGF ([4]; UA pretreated, 334-341, charge 2, H4/H5): 0(2)*
Differential HDX kinetics, peptide CQNDQM ([4]; UA pretreated, 345-352, charge 1, H5/H6): 0(1)*
Differential HDX kinetics, peptide CRAYNADNRTVF ([4]; UA pretreated, 368-377, charge 2, B1): 2(1)*
Differential HDX kinetics, peptide YNADNRTVF ([4]; UA pretreated, 369-377, charge 2, B1): 1(3)*
Differential HDX kinetics, peptide FEGKYGGMEL ([4]; UA pretreated, 378-387, charge 2, B2/H7): 2(3)*
Differential HDX kinetics, peptide FRALGCSEL ([4]; UA pretreated, 388-395, charge 2, H7/H8): −1(2)*
Differential HDX kinetics, peptide LISSIFDFSHSLSAL ([4]; UA pretreated, 396-410, charge 2, H8): 2(2)*
Differential HDX kinetics, peptide ISSIFD ([4]; UA pretreated, 397-407, charge 1, H8): 1(2)*
Differential HDX kinetics, peptide ISSIFDFSHSLSAL ([4]; UA pretreated, 397-410, charge 2, H8): 2(2)*
Differential HDX kinetics, peptide IFDFSHSLSAL ([4]; UA pretreated, 400-410, charge 2, H8): 3(2)*
Differential HDX kinetics, peptide DFSHSKSAL ([4]; UA pretreated, 402-410, charge 2, H8): 2(2)*
Differential HDX kinetics, peptide FSHSLSAL ([4]; UA pretreated, 403-410, charge 2, H8): 2(3)*
Differential HDX kinetics, peptide AXLPPXGKLRSLCSQ ([4]; UA pretreated, 454-478, charge 3, H11): 0(4)*
Differential HDX kinetics, peptide HVERLQIFQHLHPIWQ ([4]; UA pretreated, 479-495, charge 2, H11): −6(3)*
Differential HDX kinetics, peptide AAFPPLYKEL ([4]; UA pretreated, 496-505, charge 2, H12): −7(2)*
Differential HDX kinetics, peptide AAFPPLYKELF ([4]; UA pretreated, 496-506, charge 2, H12): −5(2)*
Differential HDX kinetics, peptide HFSEDEIAL ([4]; UA pretreated, charge 2, H9): 0(1)*
Differential HDX kinetics, peptide QIFQHLHPIWQ ([4]; UA pretreated, charge 2, H11): −10(3)*
Differential HDX kinetics, peptide TEIEHLVQSVCKSYRETCQL ([4]; UA pretreated, charge 3, H1): 0(4)*
Differential HDX kinetics, peptide VRMCRAYNADNRTVF ([4]; UA pretreated, charge 3, H6/B1): 1(1)*

O=C(Nc1ccc(C(O)(C(F)(F)F)C(F)(F)F)cc1)c1ccccc1Cl [SR0987, 2-chloro-N-(4-(1,1,1,3,3,3-hexafluoro-hydroxypropan-2-yl)phenyl)benzamide]
IL17 mRNA expression (EL4 T lymphocytes): further increase in expression of IL17
PD-1 mRNA expression (EL4 T lymphocytes): decrease in expression of PD-1
granzyme B mRNA expression (EL4 T lymphocytes): did not impact the expression of granzyme B
CD62L−PD1−CD4+ cell population ([5]; compared to DMSO treated cells): statistically significant increase
IL17 production (intracellular staining of IL17A) ([5]; murine TH17 cells): trend towards increased IL17 production
surface PD-1 expression ([5]; murine TH17 cells): repress surface PD-1 expression
surface expression of PD-1 (EL4 cells): statistically significant reduction of the surface expression of PD-1
cell surface PD-1 expression (Jurkat T cells): decreased cell surface PD-1 expression
